Measurements from US20230333087A1, “METHODS FOR MONITORING PATIENT RESPONSE TO TREATMENT OF RETINAL OXIDATIVE DISEASES” (BioJiva LLC, priority 2022, published 2023).

Tests used:
[1] = D-DHA substitution rates in plasma, red blood cells and retina of mice on 0.5% w/w D-DHA diet; assay type: in vivo, C57BL/6J mice; conditions: for doubling interval of D-DHA substitution rate: first order kinetics
Excerpt: Mature adult C57BL/6J mice were fed for 78 days with a customized rodent diet containing 0.5% w/w D-DHA and no natural DHA. The animals were sacrificed, and plasma, red blood cells and retinal tissues were dissected at study Days 8, 19, 38, 78, (six animals per time point, 3 males + 3 females). D-DHA + DHA were extracted from samples and derivatized into methyl esters with a mixture of heptane/ toluene (63:37 by volume), and methanol/ dimethoxypropane/ sulfuric acid (85:11:4 by volume) by gentle shaking at 80° C. for 2 hours, followed by separation and drying down of the organic phase under nitrogen. D-DHA + DHA methyl esters were structurally identified and quantified by gas chromatography coupled with a tandem mass spectrometry detector and D-DHA substitution levels (in percent of total DHA) were calculated. The results are represented in Table 1 and graphed in FIG. 1.

[2] = D-DHA content of neural retina and RPE on 0.25% D-DHA diet by mass spectrometry; assay type: in vivo, C57BL/6J mice; conditions: for % D-substitution: 4 weeks diet + IVT injection + 1 week
Excerpt: To determine the pharmacokinetics of ocular D-DHA uptake, incorporation and elimination from the neural retina and RPE/choroid/sclera, twelve-week-old C57BL/6J mice were fed a 0.5% D-DHA containing diet (0.5 g D-DHA/100 g food, Table 3) for 77 days followed by an additional 73-day wash-out phase with DHA. At 4 weeks, >55% of the DHA in the retina was D-DHA rising to >60% at 5 weeks (FIG. 6A). At similar time points, D-DHA in the RPE/choroid/sclera was >80%. […] Based on the accretion and elimination data, two-month-old mice were fed with diets containing either D-DHA or natural DHA control for 1 week, 2 weeks, 3 weeks, and 4 weeks before the IVT injection of iron and saline control (FIG. 6B). In order to better approximate typical DHA doses in human prescription omega-3 supplements (e.g. 1,500 mg/day DHA in Lovaza), the D-DHA and DHA experimental mouse diets were adjusted to 0.25% instead of 0.5% for most of the study. On a 0.25% D-DHA diet, retinal D-DHA levels exceeded 50% at five weeks (52.2±1.5% and 55% of total DHA by our GC- and LC- based MS methods, respectively), regardless of whether eyes were injected with iron or control saline (Table 3).
The extent to which D-DHA replaced natural DHA was determined by LC/MS by feeding an experimental diet containing 0.25% D-DHA for increasing periods of time. Microdissected samples of neural retina and RPE from mice fed the experimental diet for 4 weeks were analyzed after given IVT iron or control saline, and then continued on the experimental diet for another week. It was confirmed that 22.6% of DHA in the control diet consisted of isotopomers due to natural abundance ^13C and no D-DHA. Therefore, signals from the 327.2/283.2 transition represent 78.4% of the total DHA. The experimental diet contained no detectable natural DHA, but rather a distribution of deuterium-substituted DHA isotopologues (FIGS. 11A-C), which is a consequence of the D-DHA preparation method. After corrections were applied for natural abundance ^13C, it was determined that the D10-DHA isotopologue comprised 45.6% of the D-DHA species in the analyzed sample, with Ds-DHA, D9-DHA, D11-DHA, and D12-DHA isotopologues comprising the balance. Therefore, signals from the 337.2/293.2 transition represented 45.6% of the D-DHA. With these corrections applied, D-DHA isotopologues as a percentage of total DHA (i.e., D-DHA + DHA) was determined to be 59.3-60.8 % in isolated RPE, and 55.0 % in neural retina.
Adult male wild-type C57BL/6J mice (Stock No.000664, Jackson Labs, Bar Harbor, ME, USA) were housed in standard conditions under cyclic light (12 h:12 h light-dark cycle). Mice had ad libitum access to water and food. Beginning at 2 mo of age, mice were placed on the AIN93G diet described above, supplemented with 0.25% D-DHA or DHA (control diet) for 1 week, 2 weeks, 3 weeks, or 4 weeks prior to the intravitreal injection. Mice were given an intravitreal injection of 1 µl 0.5 mM ferric ammonium citrate diluted in 0.9% NaCl (saline) (MP Biomedicals LLC, Santa Ana, CA) or
Three types of mass spectrometric analysis were performed to confirm repeatability of results. In the first, lipids were extracted from retinas by a modified Folch method (CHCl3/CH3OH, 2:1). derivatized to fatty acid methyl esters (FAME), and analyzed by high resolution capillary gas chromatography and specialized chemical ionization tandem mass spectrometry. Baseline resolved DHA and D-DHA total ion signal were integrated, and the proportions of D-DHA/total DHA were calculated. The second type of mass spectrometric analysis was performed on samples of the control and experimental diets, as well as microdissected neural retina and RPE from animals on the experimental diet. Lipids were extracted and saponified, and analyzed by ESI-LC/MS on a 4000 QTrap (Sciex) operating in enhanced negative mode over an m/z range of 320 - 345 and a scan rate of 250 /sec. […]

In the case of [2H]C([2H])(/C=C\CC)/C=C\C([2H])([2H])/C=C\C([2H])([2H])/C=C\C([2H])([2H])/C=C\C([2H])([2H])/C=C\CCC(=O)OCC [D-DHA, 6,6,9,9,12,12,15,15,18,18-D10-(4Z,7Z,10Z,13Z,16Z, 19Z)-docosa 4,7,10,13,16, 19-hexaenoic acid ethyl ester], the “D-DHA substitution levels (in percent of total DHA)” value ([1]; neuroretina, day 8) is reported as 20.89%, the “D-DHA substitution levels (in percent of total DHA)” value ([1]; neuroretina, day 19) is reported as 42.94% and the “D-DHA substitution levels (in percent of total DHA)” value ([1]; neuroretina, day 38) is reported as 70.74%. For the same compound, the “D-DHA substitution levels (in percent of total DHA)” value ([1]; neuroretina, day 78) was 92.10%, the “D-DHA substitution levels (in percent of total DHA)” value ([1]; plasma, day 8 after first exposure, 0.5% w/w D-DHA diet) was 84.78% and the “D-DHA substitution levels (in percent of total DHA)” value ([1]; plasma, day 19) was 94.17%. The “D-DHA substitution levels (in percent of total DHA)” value ([1]; plasma, day 38) was 97.34%, the “D-DHA substitution levels (in percent of total DHA)” value ([1]; plasma, day 78) was 98.43% and the “doubling interval of D-DHA substitution rate” value (shortened to “doubling interval”) ([1]; plasma) was 6 to 7 days. For the same compound, the “D-DHA substitution levels (in percent of total DHA)” value ([1]; red blood cells, day 8) was 48.24%, the “D-DHA substitution levels (in percent of total DHA)” value ([1]; red blood cells, day 19) was 72.84% and the “D-DHA substitution levels (in percent of total DHA)” value ([1]; red blood cells, day 38) was 94.12%. The “D-DHA substitution levels (in percent of total DHA)” value ([1]; red blood cells, day 78) was 96.65%, the “doubling interval” value ([1]; red blood cells) was about 10 days and the “doubling interval” value ([1]; retina) was 20 to 22 days. For the same compound, the “retinal D-DHA levels (% of total DHA)” value ([2]; 0.25% D-DHA diet, five weeks (4+1), neural retina, LC-based MS method) was 55%, the “retinal D-DHA levels (% of total DHA)” value ([2]; 0.25% D-DHA diet, five weeks, GC-based MS method) was 52.2±1.5% and the “retinal D-DHA levels” value ([2]; 0.25% D-DHA diet, five weeks, iron or saline injected eyes) was “exceeded 50%”. For the same compound, the “% D-substitution” value ([2]; RPE cells, D-DHA + Fe) was 59.3 ± 3.9%, the “% D-substitution” value ([2]; RPE cells, D-DHA + saline) was 60.8 ± 2.1% and the “D-DHA isotopologues as a percentage of total DHA” value ([2]; isolated RPE, 0.25% diet, 4+1 weeks, LC/MS) was 59.3-60.8%. For the same compound, the “substitution of DHA with D-DHA in the neural retina” value ([2]; mice fed with D-DHA for 4 weeks) was over 50%, the “% D-substitution” value ([2]; neural retina, D-DHA + Fe) was 55.0 ± 3.3% and the “% D-substitution” value ([2]; neural retina, D-DHA + saline) was 55.0 ± 1.8%.
